Assay results published in US4898863A, “Heterocyclic carboxamides” (ICI Americas Inc., priority 1986, dated 1990).

What was measured:
[1] = overt toxicity / untoward side-effects in dosed laboratory animals; type: in vivo, guinea-pig
leukotriene LTD4 = experiment: in vivo guinea-pig aerosol test (leukotriene LTD4 challenge, time of onset of breathing changes); details: Cavia porcellus, oral, read-out: effective dose following oral administration

COc1cc(C(=O)NS(=O)(=O)c2ccccc2C)ccc1Cn1cc(CCC(=O)N2CCCC2)c2ccc(C(=O)NCC3CCCC3)cc21 [Example 8, N-[4-[6-(N-Cyclopentylmethylcarbamoyl)-3-[2-(pyrrolidinocarbonyl)ethyl]indol-1-ylmethyl]-3-methoxybenzoyl]-2-methylbenzesulphonamide]
oral dose showing no sign of overt toxicity [1]: 30 mmol/kg | minimal effective dose (leukotriene LTD4): 2000 µmol/kg
